Assay results: ChEMBL document CHEMBL1201862, “PubChem BioAssay data set” (2004)
The source made the active and inactive calls.

Experiments:
[1] = target: T1, Alkaline phosphatase, tissue-nonspecific isozyme (Homo sapiens, UniProt P05186); test: human TNAP enzyme inhibitors, SAR follow-up, biochemical, luminescent, dose response (AID 1056)
T1 sequence (P05186 whole entry): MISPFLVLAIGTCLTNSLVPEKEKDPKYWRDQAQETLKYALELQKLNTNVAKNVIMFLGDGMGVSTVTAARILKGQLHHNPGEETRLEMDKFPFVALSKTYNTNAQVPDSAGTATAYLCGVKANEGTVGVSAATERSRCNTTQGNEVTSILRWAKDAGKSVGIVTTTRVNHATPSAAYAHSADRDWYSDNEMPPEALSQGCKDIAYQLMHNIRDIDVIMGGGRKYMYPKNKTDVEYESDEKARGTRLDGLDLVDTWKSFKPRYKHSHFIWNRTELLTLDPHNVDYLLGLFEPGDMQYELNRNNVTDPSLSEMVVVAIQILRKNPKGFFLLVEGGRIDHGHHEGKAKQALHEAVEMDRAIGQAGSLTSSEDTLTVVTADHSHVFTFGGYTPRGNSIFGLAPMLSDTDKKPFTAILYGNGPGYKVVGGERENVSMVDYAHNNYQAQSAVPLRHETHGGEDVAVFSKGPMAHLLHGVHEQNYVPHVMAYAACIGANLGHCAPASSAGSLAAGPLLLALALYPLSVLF

[2] = target: Glyceraldehyde-3-phosphate dehydrogenase (Homo sapiens, UniProt P04406)
Nonstructural protein 1 = Nonstructural protein 1 (Influenza A virus, UniProt Q194T2); assay type: functional, Influenza A virus (A/California/07/2009(H1N1))
Coagulation factor XII = target: T2, Coagulation factor XII (Homo sapiens, UniProt P00748); assay type: functional;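 further: activated factor XIIa alpha cleaving a fluorogenic AMC peptide substrate; inhibitor potency from loss of enzyme activity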
T2 sequence (P00748 whole entry): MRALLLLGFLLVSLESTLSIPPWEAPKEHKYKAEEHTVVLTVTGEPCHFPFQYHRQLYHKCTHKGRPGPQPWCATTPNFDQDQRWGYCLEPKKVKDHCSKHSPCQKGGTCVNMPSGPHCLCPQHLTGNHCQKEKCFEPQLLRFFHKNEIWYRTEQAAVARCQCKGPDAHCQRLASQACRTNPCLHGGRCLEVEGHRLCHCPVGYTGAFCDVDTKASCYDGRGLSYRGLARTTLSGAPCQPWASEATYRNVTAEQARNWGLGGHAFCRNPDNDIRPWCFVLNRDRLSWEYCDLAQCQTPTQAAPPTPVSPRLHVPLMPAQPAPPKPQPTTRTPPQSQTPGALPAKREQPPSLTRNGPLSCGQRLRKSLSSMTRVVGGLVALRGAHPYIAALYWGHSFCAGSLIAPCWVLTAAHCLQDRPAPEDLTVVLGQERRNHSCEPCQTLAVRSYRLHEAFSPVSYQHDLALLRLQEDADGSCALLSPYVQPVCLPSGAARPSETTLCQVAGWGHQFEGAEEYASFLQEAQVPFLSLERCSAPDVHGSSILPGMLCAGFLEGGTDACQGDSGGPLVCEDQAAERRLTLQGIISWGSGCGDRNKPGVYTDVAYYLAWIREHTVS

Protein RecA = target: T3, Protein RecA (Mycobacterium tuberculosis, UniProt P9WHJ3); test: Fluorescence Cell-Free Homogeneous Dose Retest to Identify Inhibitors of RecA-Intein Splicing Activity. [Related pubchem assays (depositor defined):AID2097, AID2223, AID489010, AID492950]; assay type: functional
T3 sequence (P9WHJ3 whole entry): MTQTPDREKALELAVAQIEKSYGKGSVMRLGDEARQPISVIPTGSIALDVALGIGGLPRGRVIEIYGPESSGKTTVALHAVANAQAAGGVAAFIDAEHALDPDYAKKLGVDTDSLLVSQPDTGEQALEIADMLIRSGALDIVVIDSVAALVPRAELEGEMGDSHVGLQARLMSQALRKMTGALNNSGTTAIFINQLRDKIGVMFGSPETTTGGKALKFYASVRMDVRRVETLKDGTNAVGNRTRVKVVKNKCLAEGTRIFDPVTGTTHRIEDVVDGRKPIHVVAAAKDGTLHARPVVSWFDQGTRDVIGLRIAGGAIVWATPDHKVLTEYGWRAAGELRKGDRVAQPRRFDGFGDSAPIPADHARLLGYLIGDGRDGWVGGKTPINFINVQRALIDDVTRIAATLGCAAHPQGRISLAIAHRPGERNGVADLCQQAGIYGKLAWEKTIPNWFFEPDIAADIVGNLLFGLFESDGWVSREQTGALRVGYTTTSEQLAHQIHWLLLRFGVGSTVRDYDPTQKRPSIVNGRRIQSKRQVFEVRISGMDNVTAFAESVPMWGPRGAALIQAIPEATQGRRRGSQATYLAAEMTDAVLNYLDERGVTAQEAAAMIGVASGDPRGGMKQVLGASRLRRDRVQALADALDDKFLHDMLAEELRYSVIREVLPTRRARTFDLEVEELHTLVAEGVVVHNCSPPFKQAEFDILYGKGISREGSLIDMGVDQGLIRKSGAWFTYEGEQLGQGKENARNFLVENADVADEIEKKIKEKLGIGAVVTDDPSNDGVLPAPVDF

[3] = target: T4, Replicative DNA helicase DnaB (Mycobacterium tuberculosis, UniProt P9WMR3); test: DnaB intein splicing inhibitors, dose response, biochemical, cell-free fluorescence (AID 449749); assay type: functional
T4 sequence (P9WMR3 whole entry): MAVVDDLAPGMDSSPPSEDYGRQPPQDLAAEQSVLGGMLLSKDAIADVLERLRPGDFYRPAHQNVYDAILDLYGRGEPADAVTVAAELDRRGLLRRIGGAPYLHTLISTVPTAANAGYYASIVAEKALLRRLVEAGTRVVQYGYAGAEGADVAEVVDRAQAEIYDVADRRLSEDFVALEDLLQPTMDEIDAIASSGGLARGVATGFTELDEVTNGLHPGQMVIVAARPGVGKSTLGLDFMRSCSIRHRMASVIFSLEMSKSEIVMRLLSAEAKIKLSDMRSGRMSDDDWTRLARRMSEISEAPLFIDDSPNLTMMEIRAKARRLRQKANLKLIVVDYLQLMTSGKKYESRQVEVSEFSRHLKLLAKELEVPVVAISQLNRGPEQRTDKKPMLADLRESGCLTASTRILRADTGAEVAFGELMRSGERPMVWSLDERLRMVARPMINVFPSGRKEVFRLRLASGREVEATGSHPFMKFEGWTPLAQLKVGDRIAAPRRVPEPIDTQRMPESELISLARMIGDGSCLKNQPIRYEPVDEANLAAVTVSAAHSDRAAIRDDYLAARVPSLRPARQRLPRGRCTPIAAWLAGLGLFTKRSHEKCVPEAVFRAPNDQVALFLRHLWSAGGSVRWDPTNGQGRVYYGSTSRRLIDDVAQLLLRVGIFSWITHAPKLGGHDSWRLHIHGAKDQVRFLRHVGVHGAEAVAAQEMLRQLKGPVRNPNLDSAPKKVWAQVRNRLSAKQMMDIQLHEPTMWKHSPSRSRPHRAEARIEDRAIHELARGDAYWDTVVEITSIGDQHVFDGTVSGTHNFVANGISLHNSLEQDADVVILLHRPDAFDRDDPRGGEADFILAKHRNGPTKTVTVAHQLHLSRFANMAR

ORF 73 = target: T5, ORF 73 (Human herpesvirus 8, UniProt O40947); test: inhibitors of C-LANA binding to LBS DNA, dose response, biochemical, fluorescence polarization, cherry-picked samples (AID 504725); parameters: species or system Human gammaherpesvirus 8;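 further: fluorescence polarization of a labeled DNA duplex reporting LANA DNA binding; potency is for inhibitors that block LANA binding to the DNA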
T5 sequence (O40947 whole entry): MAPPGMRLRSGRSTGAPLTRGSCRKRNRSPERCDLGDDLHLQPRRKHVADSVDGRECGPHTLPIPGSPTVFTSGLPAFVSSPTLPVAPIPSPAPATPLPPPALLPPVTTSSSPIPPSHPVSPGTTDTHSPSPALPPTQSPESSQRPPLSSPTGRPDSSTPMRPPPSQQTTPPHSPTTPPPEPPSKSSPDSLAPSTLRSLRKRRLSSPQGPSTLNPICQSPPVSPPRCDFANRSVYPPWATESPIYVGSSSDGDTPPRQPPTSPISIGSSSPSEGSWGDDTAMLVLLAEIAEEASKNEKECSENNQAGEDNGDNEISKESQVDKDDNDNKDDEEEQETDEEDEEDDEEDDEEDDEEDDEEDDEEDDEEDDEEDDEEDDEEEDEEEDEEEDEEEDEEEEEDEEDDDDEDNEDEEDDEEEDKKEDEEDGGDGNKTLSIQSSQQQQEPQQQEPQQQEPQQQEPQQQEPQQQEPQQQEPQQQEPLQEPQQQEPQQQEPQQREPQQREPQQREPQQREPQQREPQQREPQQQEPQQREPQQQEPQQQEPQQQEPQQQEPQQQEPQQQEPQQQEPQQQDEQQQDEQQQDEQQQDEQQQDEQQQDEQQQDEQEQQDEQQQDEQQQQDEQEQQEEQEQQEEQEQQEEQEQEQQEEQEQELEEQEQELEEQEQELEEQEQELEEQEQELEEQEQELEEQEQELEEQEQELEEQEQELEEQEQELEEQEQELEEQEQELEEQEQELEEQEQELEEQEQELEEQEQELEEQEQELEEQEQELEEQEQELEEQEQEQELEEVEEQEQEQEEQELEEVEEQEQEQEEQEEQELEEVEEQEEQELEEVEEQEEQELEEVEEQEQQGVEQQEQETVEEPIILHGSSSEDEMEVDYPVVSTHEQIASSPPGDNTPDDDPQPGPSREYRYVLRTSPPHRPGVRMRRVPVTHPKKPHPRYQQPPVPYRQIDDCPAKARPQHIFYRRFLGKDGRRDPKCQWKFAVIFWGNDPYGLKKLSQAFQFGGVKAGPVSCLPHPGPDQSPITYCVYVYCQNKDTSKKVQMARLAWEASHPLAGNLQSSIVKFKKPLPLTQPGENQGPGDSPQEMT

[4] = target: G-protein coupled receptor 55 (Homo sapiens, UniProt Q9Y2T6); test: GPR55 antagonists blocking LPI-driven arrestin recruitment, primary screen, imaging, U2OS, beta-arrestin-GFP, LPI agonist (AID 2013); assay type: functional;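 further: antagonist potency measured as reduced agonist-driven arrestin aggregation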
H4 = test: Luminescence Cell-Based Dose Response HTS to Identify Activators of 5'UTR Stem-Loop Driven Prion Protein mRNA Translation in H4 Neuroglioblastoma Cells. [Related pubchem assays: 1829 (Project Summary), 1814 (Primary HTS)]; assay type: functional; conditions: Homo sapiens
Streptococcus = test: Group A Streptococcus viability loss, dose response, counter-screen for streptokinase expression inhibitor project, luminescence, BacTiterGlo (AID 1915); assay type: functional, organism-based;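 further: potency for reduction of bacterial viability or growth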
[5] = Luminescence Cell-Based Dose Response HTS to Identify Activators of Luciferase Translation or Activity in H4 […] Cells. [Related pubchem assays: 1829 (Project Summary), 1814 (Primary HTS)]; assay type: functional
Streptokinase A = target: T6, Streptokinase A (Streptococcus pyogenes serotype M1, UniProt P10520); test: S. pyogenes streptokinase expression inhibitors, potency, dose response, plasminogen activation absorbance, OD405 (AID 1914); assay type: functional, Streptococcus pyogenes M1 GAS;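 further: secreted streptokinase activity via plasminogen activation per viability signal from cell pellet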
T6 sequence (P10520 whole entry): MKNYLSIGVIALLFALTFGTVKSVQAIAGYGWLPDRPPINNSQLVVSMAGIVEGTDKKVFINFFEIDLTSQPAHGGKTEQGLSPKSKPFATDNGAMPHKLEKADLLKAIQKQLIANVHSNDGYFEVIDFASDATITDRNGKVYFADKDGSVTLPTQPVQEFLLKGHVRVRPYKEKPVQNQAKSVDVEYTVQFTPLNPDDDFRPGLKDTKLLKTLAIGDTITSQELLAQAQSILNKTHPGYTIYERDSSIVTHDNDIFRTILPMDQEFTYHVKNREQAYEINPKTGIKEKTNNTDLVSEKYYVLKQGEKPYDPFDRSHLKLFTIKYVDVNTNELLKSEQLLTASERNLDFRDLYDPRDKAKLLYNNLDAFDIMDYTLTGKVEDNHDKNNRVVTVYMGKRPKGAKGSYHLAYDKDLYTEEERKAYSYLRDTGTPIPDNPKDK

[6] = HEp-2 cell cytotoxicity, dose response, cytotoxicity control for RSV inhibitor project, HTS (AID 2410); assay type: functional; conditions: human respiratory syncytial virus
[7] = test system: Streptococcus sp. 'group A'; test: growth inhibition of control SK(-) GAS strain, dose response, counter-screen for streptokinase expression inhibitor project, luminescence, kanamycin, BacTiterGlo, confirmation (AID 1900); assay type: functional, organism-based
Prothrombin = Prothrombin (Homo sapiens, UniProt P00734); test: Thrombin 1536 HTS Dose Response Confirmation. [Related pubchem assays: 1046 (Thrombin 1536 HTS; hits were confirmed in this assay)]; assay type: functional
SUMO-activating enzyme = SUMO-activating enzyme (Homo sapiens, UniProt Q9UBT2); test: SUMOylation inhibitor hit validation, confirmation, SUMOylation inhibitor project, biochemical, AlphaScreen (AID 2018); assay type: functional
SUMO-activating enzyme, sequence (Q9UBE0 whole entry): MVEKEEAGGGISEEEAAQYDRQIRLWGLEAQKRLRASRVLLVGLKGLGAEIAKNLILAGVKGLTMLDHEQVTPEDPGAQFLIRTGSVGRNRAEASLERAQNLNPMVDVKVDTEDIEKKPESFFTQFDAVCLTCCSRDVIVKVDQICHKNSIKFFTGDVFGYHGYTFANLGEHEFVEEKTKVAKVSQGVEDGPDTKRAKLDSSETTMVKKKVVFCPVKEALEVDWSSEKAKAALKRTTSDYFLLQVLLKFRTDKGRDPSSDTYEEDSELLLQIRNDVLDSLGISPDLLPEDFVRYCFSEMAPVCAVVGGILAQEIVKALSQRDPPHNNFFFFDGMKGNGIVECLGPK
SUMO-activating enzyme, sequence (Q9UBT2 whole entry): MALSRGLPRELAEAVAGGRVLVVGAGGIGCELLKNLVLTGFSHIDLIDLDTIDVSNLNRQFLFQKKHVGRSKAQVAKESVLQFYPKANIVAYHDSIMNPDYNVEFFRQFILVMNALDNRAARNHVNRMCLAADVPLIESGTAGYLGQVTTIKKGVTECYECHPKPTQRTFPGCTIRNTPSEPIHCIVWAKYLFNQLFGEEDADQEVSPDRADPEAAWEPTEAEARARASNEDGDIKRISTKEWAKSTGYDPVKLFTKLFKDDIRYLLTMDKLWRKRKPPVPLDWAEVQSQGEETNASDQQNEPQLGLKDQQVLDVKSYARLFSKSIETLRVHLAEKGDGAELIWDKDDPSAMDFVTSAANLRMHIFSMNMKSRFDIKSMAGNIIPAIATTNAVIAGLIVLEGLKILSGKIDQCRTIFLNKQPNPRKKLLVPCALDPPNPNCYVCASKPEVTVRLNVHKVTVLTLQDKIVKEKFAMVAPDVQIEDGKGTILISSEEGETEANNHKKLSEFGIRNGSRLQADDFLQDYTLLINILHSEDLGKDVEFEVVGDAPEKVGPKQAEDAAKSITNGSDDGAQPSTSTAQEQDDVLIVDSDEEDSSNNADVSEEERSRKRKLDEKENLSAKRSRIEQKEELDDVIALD

Glyceraldehyde-3-phosphate dehydrogenase, sequence (P04406 whole entry): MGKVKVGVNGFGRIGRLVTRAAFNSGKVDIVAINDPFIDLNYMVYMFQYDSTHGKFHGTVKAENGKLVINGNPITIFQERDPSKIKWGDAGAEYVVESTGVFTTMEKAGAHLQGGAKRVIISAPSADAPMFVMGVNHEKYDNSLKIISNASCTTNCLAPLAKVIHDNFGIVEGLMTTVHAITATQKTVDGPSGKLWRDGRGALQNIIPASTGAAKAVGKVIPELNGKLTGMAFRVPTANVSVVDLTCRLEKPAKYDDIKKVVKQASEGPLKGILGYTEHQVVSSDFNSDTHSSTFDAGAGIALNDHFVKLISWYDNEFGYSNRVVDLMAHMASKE
G-protein coupled receptor 55, sequence (Q9Y2T6 whole entry): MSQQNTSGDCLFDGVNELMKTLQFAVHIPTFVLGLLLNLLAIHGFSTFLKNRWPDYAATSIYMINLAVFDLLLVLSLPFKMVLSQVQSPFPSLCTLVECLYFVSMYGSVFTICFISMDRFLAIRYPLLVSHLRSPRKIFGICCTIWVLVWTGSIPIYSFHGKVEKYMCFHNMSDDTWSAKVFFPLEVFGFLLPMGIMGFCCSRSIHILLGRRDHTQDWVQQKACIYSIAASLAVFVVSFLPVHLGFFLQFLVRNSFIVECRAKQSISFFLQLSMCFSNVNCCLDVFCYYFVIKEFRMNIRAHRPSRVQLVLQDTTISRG
Nonstructural protein 1, sequence (Q194T2 whole entry): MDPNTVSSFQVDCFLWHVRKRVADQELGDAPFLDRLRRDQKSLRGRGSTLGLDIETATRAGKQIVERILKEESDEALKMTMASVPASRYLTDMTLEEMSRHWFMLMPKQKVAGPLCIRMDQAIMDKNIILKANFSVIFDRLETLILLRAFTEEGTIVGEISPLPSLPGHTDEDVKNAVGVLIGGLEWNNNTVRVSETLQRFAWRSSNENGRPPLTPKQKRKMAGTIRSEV

Q: For `CCOc1ccc(C)cc1S(=O)(=O)Nc1cccnc1`, which IC50 [1] is on record?
A: 0.858 µM (active)

Q: What about the IC50 [2] of the same molecule?
A: > 10 µM (inconclusive)

Q: With `Cc1cc(C(=O)NCCc2ccc(O)c(O)c2)oc1C` as the molecule, how does the IC50 [1] read?
A: 57.3 µM (active)

Q: Which IC50 (Nonstructural protein 1) does the source give for `COc1ccc2nc3ccccc3nc2c1N` here?
A: 32.5 µM (active)

Q: What about the IC50 (Coagulation factor XII) of the same molecule?
A: > 50 µM (inactive)

Q: And the EC50 (Protein RecA)?
A: 22.1 µM (active)

Q: And the AC50 [3]?
A: 40.1 µM (active)

Q: For `CC(Oc1ccccc1)c1nnc(N)s1` (configuration not stated), which AC50 (ORF 73) is on record?
A: 53 µM (active)

Q: For `N=C1S/C(=C\c2cn[nH]c2-c2ccc(F)cc2)C(=O)N1c1ccccc1F`, which IC50 [4] is on record?
A: < 500 nM (active)

Q: What about the EC50 (H4) of the same molecule?
A: > 120 µM (not active)

Q: And the EC50 (Streptococcus)?
A: 38.9 µM (active)

Q: And the EC50 [5]?
A: 8.92 µM (active)

Q: What about the EC50 (Streptokinase A) of the same molecule?
A: > 150 µM (not active)

Q: And the CC50 [6]?
A: 20.2 µM (active)

Q: What about the EC50 [7] of the same molecule?
A: 4.49 µM (active)

Q: With `O=C(O)c1ccc(-c2ccccc2Cl)o1` as the molecule, how does the IC50 [1] read?
A: > 100 µM (inactive)

Q: And the IC50 [2]?
A: > 100 µM (not active)

Q: With `CN(Cc1ccccn1)Cc1nc(-c2ccc(Cl)cc2)no1` as the molecule, how does the IC50 (Coagulation factor XII) read?
A: > 50 µM (inactive)

Q: And the IC50 (Prothrombin)?
A: > 50 µM (not active)

Q: With `O=C(Nc1ccc(Br)cc1)c1ccc(N2C(=O)C3CC=C(Cl)CC3C2=O)cc1` (configuration not stated) as the molecule, how does the IC50 (SUMO-activating enzyme) read?
A: 49.7 µM (active)

Q: With `Clc1ccc(-c2noc(CSc3nnc(Cc4cccs4)n3-c3ccccc3)n2)cc1` as the molecule, how does the IC50 [4] read?
A: 2670 nM (active)

Q: With `CC1=C(C(=O)OCC2CCCO2)C(c2ccc(C)o2)C2=C(O)CC(c3ccc(F)cc3)CC2=N1` (configuration not stated) as the molecule, how does the IC50 (Coagulation factor XII) read?
A: > 50 µM (inactive)
